# What was measured:
# RPMI-8226 = assay: NCI SRB anti-leukemic assay
# K-562 = assay: NCI SRB anti-leukemic assay
# CCRF-CEM = assay: NCI SRB anti-leukemic assay
# HL-60(TB) [1] = assay: cells; details: Homo sapiens, HL-60, read-out: GI50 HL-60(TB)
# BCR-ABL^WT = BCR-ABL^WT (Homo sapiens, UniProt P00519); assay: BCR-ABL WT kinase inhibition assay; type: biochemical; details: 10-dose duplicate, 3-fold serial dilution, 10 µM ATP
# SR = assay: NCI SRB anti-leukemic assay
# MOLT-4 = assay: NCI SRB anti-leukemic assay
# HL-60(TB) [2] = details: five-dose assay
# Sequence of BCR-ABL^WT (P00519 whole entry): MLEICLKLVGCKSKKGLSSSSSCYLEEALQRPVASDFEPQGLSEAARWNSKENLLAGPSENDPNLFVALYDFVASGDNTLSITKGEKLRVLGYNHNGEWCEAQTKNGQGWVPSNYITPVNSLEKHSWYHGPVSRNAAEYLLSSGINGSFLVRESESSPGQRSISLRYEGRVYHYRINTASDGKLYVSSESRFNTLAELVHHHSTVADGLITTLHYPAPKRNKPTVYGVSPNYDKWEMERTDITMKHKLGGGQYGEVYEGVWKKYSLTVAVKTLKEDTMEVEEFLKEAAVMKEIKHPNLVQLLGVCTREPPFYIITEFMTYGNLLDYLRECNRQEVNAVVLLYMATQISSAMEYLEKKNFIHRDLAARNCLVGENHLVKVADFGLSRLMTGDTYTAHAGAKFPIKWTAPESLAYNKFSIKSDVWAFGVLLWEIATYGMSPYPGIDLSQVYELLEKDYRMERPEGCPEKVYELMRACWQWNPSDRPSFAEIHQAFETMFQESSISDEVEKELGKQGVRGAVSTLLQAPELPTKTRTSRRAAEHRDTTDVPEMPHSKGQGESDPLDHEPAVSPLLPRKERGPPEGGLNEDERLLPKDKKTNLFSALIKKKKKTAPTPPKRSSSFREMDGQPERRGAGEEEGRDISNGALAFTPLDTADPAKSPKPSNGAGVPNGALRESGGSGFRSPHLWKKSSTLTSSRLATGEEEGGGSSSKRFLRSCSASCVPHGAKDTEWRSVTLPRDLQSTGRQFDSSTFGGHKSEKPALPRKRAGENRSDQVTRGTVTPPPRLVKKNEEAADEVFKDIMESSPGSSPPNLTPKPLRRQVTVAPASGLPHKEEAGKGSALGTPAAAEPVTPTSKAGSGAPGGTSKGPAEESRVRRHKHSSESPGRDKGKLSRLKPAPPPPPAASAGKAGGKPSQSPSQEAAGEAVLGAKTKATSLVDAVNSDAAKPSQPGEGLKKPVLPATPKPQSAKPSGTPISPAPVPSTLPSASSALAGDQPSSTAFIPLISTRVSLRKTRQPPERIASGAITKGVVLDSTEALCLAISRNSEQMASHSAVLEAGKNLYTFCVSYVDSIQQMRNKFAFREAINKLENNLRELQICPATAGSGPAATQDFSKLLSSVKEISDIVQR
smiles,measurement,setting,value
CCN1CCN(Cc2ccc(C(=O)Nc3cccc(C#Cc4cccc5[nH]nc(N)c45)c3)cc2C(F)(F)F)CC1 [Compound 4b],GI50,"RPMI-8226; Homo sapiens, RPMI-8226, read-out: GI50 RPMI-8226",1590 nM
same,CC50,"RPMI-8226; Homo sapiens, RPMI-8226, read-out: LC50 (half-maximal lethal concentration) RPMI-8226",9710 nM
same,TGI (total growth inhibition) RPMI-8226,RPMI-8226; five-dose assay,3920 nM
same,GI % RPMI-8226,RPMI-8226; single dose 10 µM,L (lethal effect (% GI > 100))
same,GI50,"K-562; Homo sapiens, K562, read-out: GI50 K-562",< 1000 nM
same,TGI (total growth inhibition) K-562,K-562; five-dose assay,1140 nM
same,GI50,"CCRF-CEM; Homo sapiens, CCRF-CEM, read-out: GI50 CCRF-CEM",1600 nM
same,CC50,"CCRF-CEM; Homo sapiens, CCRF-CEM, read-out: LC50 (half-maximal lethal concentration) CCRF-CEM",8160 nM
same,TGI (total growth inhibition) CCRF-CEM,CCRF-CEM; five-dose assay,3620 nM
same,GI % CCRF-CEM,CCRF-CEM; single dose 10 µM,96.4%
same,GI50,HL-60(TB) [1],593 nM
same,IC50,BCR-ABL^WT,0.64 ± 0.0099 nM
same,GI50,"SR; Homo sapiens, SR, read-out: GI50 SR",1780 nM
same,CC50,"SR; Homo sapiens, SR, read-out: LC50 (half-maximal lethal concentration) SR",> 100000 nM
same,TGI (total growth inhibition) SR,SR; five-dose assay,4590 nM
same,GI50,"MOLT-4; Homo sapiens, MOLT-4, read-out: GI50 MOLT-4",1420 nM
same,TGI (total growth inhibition) MOLT-4,MOLT-4; five-dose assay,3570 nM
same,TGI (total growth inhibition) HL-60(TB),HL-60(TB) [2],2610 nM

# From PMC10360995, “Discovery of 3-((3-amino-1H-indazol-4-yl)ethynyl)-N-(4-((4-ethylpiperazin-1-yl)methyl)-3-(trifluoromethyl)phenyl)benzamide (AKE-72), a potent Pan-BCR-ABL inhibitor including the T315I gatekeeper resistant mutant” (Journal of Enzyme Inhibition and Medicinal Chemistry, 2023)
